This experiment deals with T1, Calpain-1 catalytic subunit (Sus scrofa, UniProt P35750).
T1 sequence (P35750 whole entry): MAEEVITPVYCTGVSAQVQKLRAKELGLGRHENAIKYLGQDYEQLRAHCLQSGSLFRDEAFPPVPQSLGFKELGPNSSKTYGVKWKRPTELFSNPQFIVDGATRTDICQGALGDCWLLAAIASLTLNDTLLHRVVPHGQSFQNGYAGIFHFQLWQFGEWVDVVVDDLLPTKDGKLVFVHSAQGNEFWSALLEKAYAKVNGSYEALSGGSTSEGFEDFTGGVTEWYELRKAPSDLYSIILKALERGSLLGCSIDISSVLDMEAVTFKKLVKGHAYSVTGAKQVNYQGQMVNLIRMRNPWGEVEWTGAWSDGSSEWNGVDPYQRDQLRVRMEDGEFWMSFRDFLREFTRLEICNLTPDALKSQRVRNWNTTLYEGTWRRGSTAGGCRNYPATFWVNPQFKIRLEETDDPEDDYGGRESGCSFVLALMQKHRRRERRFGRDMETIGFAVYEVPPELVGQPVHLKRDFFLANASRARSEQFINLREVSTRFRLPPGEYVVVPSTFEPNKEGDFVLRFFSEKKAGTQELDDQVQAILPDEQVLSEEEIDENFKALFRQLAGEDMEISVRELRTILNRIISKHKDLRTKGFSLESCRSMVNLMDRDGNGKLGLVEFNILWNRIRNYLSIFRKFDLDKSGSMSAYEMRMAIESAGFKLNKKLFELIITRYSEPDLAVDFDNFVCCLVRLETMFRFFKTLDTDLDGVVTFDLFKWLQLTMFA
The experiment in a line: Binding affinity against porcine erythrocyte calpain I was determined.
One may read the Ki as the equilibrium dissociation constant of an inhibitor or competing ligand from its target. Consider `COC(=O)[C@@H](Cc1ccccc1)NC(=O)C(=O)[C@H](Cc1ccccc1)NC(=O)C(CC(C)C)NC(=O)OCc1ccccc1` (stereo partly specified), for which affinity was put at a Ki of 940 nM. The same measure for `CC(C)CC(NC(=O)OCc1ccccc1)C(=O)N[C@@H](Cc1ccccc1)C(=O)C(=O)NNCc1ccccc1` (stereo partly specified): 4.7 nM; for `CC(C)CC(NC(=O)OCc1ccccc1)C(=O)N[C@@H](Cc1ccccc1)C(=O)C(=O)NCCc1ccccc1` (stereo partly specified): 54 nM.

For `CC(C)CC(NC(=O)OCc1ccccc1)C(=O)N[C@@H](Cc1ccccc1)C(=O)C(=O)N[C@@H](Cc1ccccc1)C(=O)O` (stereo partly specified), affinity was put at a Ki of 830 nM. With `COC(=O)[C@H](Cc1ccccc1)NC(=O)C(=O)[C@H](Cc1ccccc1)NC(=O)C(CC(C)C)NC(=O)OCc1ccccc1` (stereo partly specified), the affinity corresponds to a Ki of 680 nM. As for `CC(C)CC(NC(=O)OCc1ccccc1)C(=O)N[C@@H](Cc1ccccc1)C(=O)C(=O)N[C@H](Cc1ccccc1)C(=O)O` (stereo partly specified), the Ki is > 430000 nM.

Source of the values: ChEMBL document CHEMBL1139441, “Design, synthesis, molecular modeling studies, and calpain inhibitory activity of novel alpha-ketoamides incorporating polar residues at the P1'-position” (J Med Chem, 2004).
